Test results from the METLIN SMRT retention time set (Domingo-Almenara et al. 2019).

Experiment: gradient 5% acetonitrile 3 min, to 50% in 2 min, to 85% in 15 min, held 3 min, 100 µL/min
Settings: column: Zorbax Extend-C18 2.1 x 50 mm; eluents: water / acetonitrile, 0.1% formic acid
Summary of the method: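 The system's dead and dwell volumes were 40 μL and 900 μL, with a Zorbax Extend-C18 column (2.1 × 50 mm, 1.8 μm) run at 100 μL/min in water and acetonitrile containing 0.1% formic acid each. Pure standards were analyzed in mixtures of ~100 molecules by HPLC–quadrupole time-of-flight mass spectrometry in positive and negative ionization mode. Retention time was assigned from computationally picked, manually inspected adduct peaks.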

Compound	RP-LC retention time [s]
CCn1ccc2c(cc(C(=O)Nc3cc(Cl)c(OC)cc3OC)n2C)c1=O	810
O=C(O)CCc1ccc(NCc2cccc(Oc3ccccc3)c2)cc1	1040
OC(CNCc1ccc(-c2cc(Cl)ccc2Cl)o1)c1ccccc1 (stereo not drawn)	762
CCCNC(=O)N(CC(=O)N1CCc2sccc2C1COc1ccccc1)CC1CCCO1 (stereo not drawn)	911
CCC(=O)NCc1nc2c(n1CC)CN(C(=O)c1ccc(C(F)(F)F)cc1)CC2	614
CCOC(=O)C(=O)Nc1cc(Cl)ccc1C#N	763
COc1cc(Nc2nc(-c3nnn(-c4ccc(Br)cc4F)c3C)ns2)cc(OC)c1	1120
CCCN1CCN(C(=O)C2CCCN(c3nnc(C)c4c(C)n(-c5ccccc5)nc34)C2)CC1 (stereo not drawn)	582
Cc1ccc(-c2nnc(Cc3nc(-c4ccc(F)cc4)no3)o2)cc1F	1100
O=c1n(Cc2cccc(F)c2)nc2c(-c3nc(-c4cccc(F)c4)no3)cccn12	1030
O=C(NCCN1CCOCC1)c1csc(-c2ccc(N3CCCC3)nc2)n1	542
Cc1ccccc1-c1noc(C2CCCN2C(=O)NC2CCCCC2)n1 (stereo not drawn)	1020
O=C1CCCN1Cc1nc(-c2ccc(F)c(Cl)c2)no1	853
CCCS(=O)(=O)N1CCC2(CC1)CN(c1cccc(F)c1)C2c1ccccc1 (stereo not drawn)	1290
CCc1ccccc1NC(=O)NCCNC(=O)c1ccc(NC(=O)C2CC2)cc1	657
COC(=O)c1cc(OCC(=O)Nc2ccc(OC)c(Cl)c2)c2ccccc2n1	812
CCC(C)(C)NS(=O)(=O)c1cc(-c2nc(C(C)(C)C)cs2)cs1	1300
Cn1nc(CC(=O)Nc2ccccc2Br)c2ccccc2c1=O	774
CC(C)NC(=O)c1c2c(cn(-c3ccccc3)c1=O)C(=O)CC(C)(C)C2	878
Cc1cccc(-c2nnc(-c3cccc(S(=O)(=O)N4CCCCC4)c3)o2)c1	1140
O=C(NC1CCN(c2cc(-c3cccs3)[nH]n2)C1)c1ccc(F)cc1 (stereo not drawn)	726
Cc1cc(NC(=O)c2[nH]c(C)c(S(=O)(=O)N3CCCCC3)c2C)ccc1Br	1110

Compound	RP-LC retention time [s]
COc1ccc(NC(=O)C2=C(C)C(=O)OC23CCCCCC3)cc1OC	887
CCOc1ccc(-c2nc(COc3cc(C)c4c(C)nn(C)c4n3)c(C)o2)cc1OC	1110
Cc1ccc(CNC(=O)N2CCCC(C)(C(=O)NCc3ccc(C)cc3)C2)cc1 (stereo not drawn)	947
COc1ccccc1CCNC(=O)Cn1ccc2ccccc21	891
Cc1ccc2oc(-c3noc(C(=O)NCCN4CCC(C)CC4)n3)c(C)c2c1	759
Cc1ccc(-c2ccc(=O)n(CCCC(=O)Nc3ccc(-c4ccc(=O)[nH]n4)cc3)n2)cc1	678
Nc1cc(C2CCN(C(=O)COc3ccccc3)CC2)no1	662
CCN1CCN(CCCNC(=O)CCCn2c3ccccc3c3cnn(C)c(=O)c32)CC1	576
O=C(NC1CCN(c2cc(-c3cccs3)[nH]n2)C1)c1ccccc1Br (stereo not drawn)	705
O=C(NCc1ccc2c(c1)OCO2)c1c(O)c2cccnc2n(-c2ccc(F)cc2)c1=O	1120
CC1Cc2ccccc2N1C(=O)C1CCN(S(=O)(=O)c2cn(C(C)C)cn2)CC1 (stereo not drawn)	779
Cn1nc2c(c1NC(=O)c1ccc([N+](=O)[O-])s1)CCC2	698
Cc1ccc(N2C(=O)CCS2(=O)=O)cc1S(=O)(=O)Nc1cccc2cccnc12	808
COc1ccc(NC(=O)c2cnc3c(c2)c(=O)n(C)c(=O)n3-c2ccc(F)cc2)cc1	856
O=C(NCCc1c[nH]c2ccccc12)c1cc(S(=O)(=O)N2CCCCC2)ccc1Cl	966
COc1ccc(NC(=O)Cn2nc3cc(C)nc(Nc4ccc(C)c(F)c4)n3c2=O)cc1	1040
COCc1nc2cccnc2n1C1CCN(C(=O)Nc2ccccc2Br)CC1	724
O=C(N1CC(c2nc(-c3cccs3)no2)C1)C1(c2ccccc2)CCOCC1	814
CCn1ccc(C(=O)N2CCC(n3c(C)cnc3C3CCC3)C2)n1 (stereo not drawn)	576
Cn1c(=O)c2c(nc(Cc3ccc(N)cc3)n2C)n(C)c1=O	621
COc1ccc(NC(=O)CN2C(=O)c3ccccc3Sc3ncccc32)cc1	758
Cc1cc(C)cc(NC(=O)c2cnc(-c3ccccc3)nc2-c2ccncc2)c1	988

Compound	RP-LC retention time [s]
O=C(Cn1c(=O)n(Cc2cccnc2)c(=O)c2ncccc21)c1ccc2c(c1)CCCC2	630
Cc1ccc2c(c1)N(S(C)(=O)=O)CCC(C(=O)Nc1cccc(F)c1)O2 (stereo not drawn)	973
CCOC1CCOC2(CCN(C(=O)c3ccco3)CC2)C1 (stereo not drawn)	691
O=C(COc1ccc(F)cc1)Nc1cnc(N2CCCCCC2)nc1	957
O=C(c1ccc2ccnc(N3CCN(c4ccccc4)CC3)c2c1)N1CCN(c2ccccn2)CC1	616
CCCC(=O)Nc1ccc2c(c1)CN(C(=O)c1cc(F)ccc1Cl)C(C(=O)N(C)C)C2 (stereo not drawn)	726
O=C(c1ccc(C(F)(F)F)cc1)N1CCC(n2c(-c3ccco3)nc3cccnc32)C1 (stereo not drawn)	826
Clc1cccc(-c2ccc(CNCc3ccco3)o2)c1	837
O=C(Nc1nnc(-c2ccc(Br)cc2)o1)c1ccccc1F	788
COCc1cc(=O)n(CC(=O)Nc2ccc(F)c(Cl)c2)c(N2CCOCC2)n1	917
O=C(NCc1nc(-c2ccc(N3CCCC3)cc2)no1)c1cccs1	962
COc1ccc(NC(=O)NC(C(=O)N2CCc3ccccc32)C(C)C)c(OC)c1 (stereo not drawn)	934
CCc1ccc(NC(=O)C2CCN(S(=O)(=O)c3cc(-c4noc(C5CC5)n4)cs3)CC2)cc1	1100
CCOC(=O)c1cc(S(=O)(=O)N2CCCC2C(=O)N2CCC3(CC2)OCCO3)cn1C (stereo not drawn)	720
Cc1cc(C)n(-c2ccnc(N3CCN(C(C)C)CC3)n2)n1	610
Cc1nc(-c2csc(S(=O)(=O)N3CCC(C(=O)Nc4ccccn4)CC3)c2)no1	740
CCCN1C(=O)c2c(C(=O)NCCc3ccc(C)cc3)ncn2CC1(C)C(=O)NCCC(C)C (stereo not drawn)	907
COc1ccc(Cc2nc3nccc(-c4ccccc4)n3n2)cc1	872
CCOC(=O)Cc1ccc(NC(=O)N2CCN(c3nc4ccccc4nc3C(F)(F)F)CC2)cc1	1080
Cc1cccc(-c2noc(Cc3nnc(-c4cccc(Br)c4)o3)n2)c1	1150
CCc1cc(=O)n(CC(=O)Nc2cccc(C)c2C)c(N2CCOCC2)n1	764
CCCOc1ccc(-c2noc(Cc3nc(-c4ccc5c(c4)OCO5)cs3)n2)cc1	1310

Compound	RP-LC retention time [s]
CCOc1ccc(NC(=O)CSc2ccc(S(=O)(=O)c3ccccc3)nn2)cc1	906
Cc1ccccc1Cn1nc2ccc(S(=O)(=O)N3CCC(C)CC3)cn2c1=O	1060
Cc1cc(C)n(Cc2nc(-c3ccc(NC(=O)c4cccs4)cc3)oc2C)n1	896
COc1ccc(C2(C(=O)N3CCC(c4nc(CCOCC5CCCC5)no4)C3)CC2)cc1 (stereo not drawn)	1060
CCN(Cc1ccccc1)C(=O)C1CCN(S(=O)(=O)c2ccc3c(c2)sc(=O)n3CC)CC1	953
CC(C)(C)NC(=O)c1ccc(-c2nnc3ccc(NC(=O)C4CC4)cn23)cc1	731
CS(=O)(=O)c1nc2ccc(NS(=O)(=O)c3ccc(Br)s3)cc2s1	888
CCN(CC)C(=O)c1ccc2c(c1)nnn2CCNC(=O)Nc1ccc(Br)cc1F	787
Cc1nc(Nc2ncc3c(n2)CC(c2ccc(F)cc2)CC3=O)nc2c(C)cccc12 (stereo not drawn)	746
CCN1C(=O)c2cccnc2Sc2cc(CNC(=O)c3cnccn3)ccc21	683
CCOC(=O)C(=O)Nc1ccc(SCc2nnc(-c3ccccc3C)o2)cc1	950
O=C(Nc1ccc2c(c1)OCO2)Nc1cccn2c(C3CCC3)nnc12	801
CC1=NS(=O)(=O)N(Cc2ccccc2)C=C1C(=O)OCc1ccccc1	1090
OC(COc1ccc(Cl)cc1Cl)CN1CCCC1 (stereo not drawn)	570
CCOc1ccc(Nc2nc(-c3c(C)nc4ccccn34)cs2)cc1	722
O=C(CCS(=O)(=O)c1ccccc1)Nc1nc(-c2ccccc2)cs1	1120
CCn1c(=O)c(NCCc2ccc(OC)c(OC)c2)nc2ccncc21	618
CCOc1cccc(-c2noc(Cn3c(=O)n(C(C)C)c(=O)c4ccccc43)n2)c1	1190
CS(=O)(=O)N1CCCC(C(=O)Nc2ccc3c(c2)C(=O)NC3=O)C1 (stereo not drawn)	612
Cn1cccc1CN(Cc1cccs1)C(=O)Cn1c(=O)oc2ccccc21	899
Cc1ccc(C2=NC3(CCN(C(=O)COc4ccc(Cl)cc4)CC3)ON2)cc1	935
CCNC(=O)Nc1ccc2c(c1)CN(S(=O)(=O)c1cn(C)cn1)CCO2	625
